Laboratory results as given in US20080234202A1, “Non-natural amino acids and neurotensin analogues” (priority 2004, published 2008).
Read-outs that look alike come from different tables or passages of the source. Where a SMILES comes first, the peptide text is derived from it. [ ]: non-standard residue; d: D form. The star is where a group is joined. Tle = CC(C)(C)[C@H](N)C(=O)O; X1 = C[C@@H](CCCCCN)C(=O)*

Tests used:
NTR-2 = NTR-2 (Homo sapiens, UniProt O95665); assay: Competitive NTR-2 binding versus radiolabeled NT[8-13]
NTR-2, sequence (O95665 whole entry, species assumed): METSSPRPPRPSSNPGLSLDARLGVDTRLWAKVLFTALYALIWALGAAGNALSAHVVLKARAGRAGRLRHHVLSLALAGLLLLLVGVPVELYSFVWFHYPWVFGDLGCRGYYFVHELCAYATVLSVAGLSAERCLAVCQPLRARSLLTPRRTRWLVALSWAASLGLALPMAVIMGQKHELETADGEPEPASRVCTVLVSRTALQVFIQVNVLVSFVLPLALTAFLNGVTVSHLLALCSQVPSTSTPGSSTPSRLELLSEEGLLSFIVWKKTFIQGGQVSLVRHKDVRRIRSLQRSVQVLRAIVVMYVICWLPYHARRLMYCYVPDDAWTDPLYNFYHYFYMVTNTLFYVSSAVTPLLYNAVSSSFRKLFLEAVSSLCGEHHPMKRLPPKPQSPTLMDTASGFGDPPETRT

NTR-1 = NTR-1 (Homo sapiens, UniProt P30989); assay: Competitive NTR-1 binding versus radiolabeled NT[8-13]
NTR-1, sequence (P30989 whole entry, species assumed): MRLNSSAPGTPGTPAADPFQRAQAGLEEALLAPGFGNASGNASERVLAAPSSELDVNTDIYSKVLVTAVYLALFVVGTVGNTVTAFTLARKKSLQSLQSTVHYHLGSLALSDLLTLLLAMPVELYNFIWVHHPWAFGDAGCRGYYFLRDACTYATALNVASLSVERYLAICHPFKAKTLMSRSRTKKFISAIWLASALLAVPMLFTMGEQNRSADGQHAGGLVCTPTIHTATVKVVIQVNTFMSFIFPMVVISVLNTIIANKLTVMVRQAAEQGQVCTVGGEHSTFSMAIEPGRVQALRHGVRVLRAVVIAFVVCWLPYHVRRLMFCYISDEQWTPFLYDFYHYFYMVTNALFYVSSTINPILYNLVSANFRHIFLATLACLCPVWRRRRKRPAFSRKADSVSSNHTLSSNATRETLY

CYP3A4 = CYP3A4 (Homo sapiens, UniProt P08684); assay: Liver CYP screening: CYP3A4; conditions: 10^−3, 10^−2, 0.1 M
CYP3A4, sequence (P08684 whole entry): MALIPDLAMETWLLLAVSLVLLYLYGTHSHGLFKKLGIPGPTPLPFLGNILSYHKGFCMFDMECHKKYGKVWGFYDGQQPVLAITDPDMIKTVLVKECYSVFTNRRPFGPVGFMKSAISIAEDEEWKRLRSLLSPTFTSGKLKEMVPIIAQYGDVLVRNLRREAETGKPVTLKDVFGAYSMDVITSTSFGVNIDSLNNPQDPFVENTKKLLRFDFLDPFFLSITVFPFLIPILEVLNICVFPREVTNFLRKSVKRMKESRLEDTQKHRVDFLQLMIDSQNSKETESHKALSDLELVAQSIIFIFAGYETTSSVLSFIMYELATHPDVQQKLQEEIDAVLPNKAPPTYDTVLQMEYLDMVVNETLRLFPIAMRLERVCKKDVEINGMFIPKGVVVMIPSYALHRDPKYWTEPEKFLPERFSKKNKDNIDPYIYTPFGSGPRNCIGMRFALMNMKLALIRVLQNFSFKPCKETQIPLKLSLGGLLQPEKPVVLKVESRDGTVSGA
Source text: (§1) Liver Receptor Screening (Stanford Research Institute Study B213-06).

CYP1A2 = biological target: T1, CYP1A2 (Homo sapiens, UniProt P05177); assay: Liver CYP screening: CYP1A2; conditions: 10^−3, 10^−2, 0.1 M
T1 sequence (P05177 1-516): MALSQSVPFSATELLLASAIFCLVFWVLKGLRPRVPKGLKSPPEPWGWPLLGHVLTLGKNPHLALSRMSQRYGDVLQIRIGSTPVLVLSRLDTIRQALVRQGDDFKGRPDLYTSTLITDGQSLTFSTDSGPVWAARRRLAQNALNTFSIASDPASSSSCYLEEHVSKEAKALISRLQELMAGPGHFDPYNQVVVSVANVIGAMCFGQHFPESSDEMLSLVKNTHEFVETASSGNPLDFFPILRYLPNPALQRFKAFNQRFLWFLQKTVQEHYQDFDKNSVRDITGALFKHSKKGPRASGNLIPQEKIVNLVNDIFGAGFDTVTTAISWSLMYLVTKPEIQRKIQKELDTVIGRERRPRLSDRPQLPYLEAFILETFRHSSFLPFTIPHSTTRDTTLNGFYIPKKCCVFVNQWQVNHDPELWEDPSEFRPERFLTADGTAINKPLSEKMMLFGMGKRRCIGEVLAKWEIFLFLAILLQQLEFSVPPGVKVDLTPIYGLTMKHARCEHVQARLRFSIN
Source text: as §1

[1] = Acute toxicity, clinical observation and maximum tolerated dose in rats; assay type: in vivo, rat
Method: During the 2 and 24 hour post-dosing clinical observation periods, measurements of core body temperatures were taken.

mouse bone marrow cells = assay: Micronucleus study; assay type: in vivo; conditions: oral, CD-1 mice; initial data
Method: Genetic Toxicology. […] Experimental protocols are as follows.
In the micronucleus study, 90 CD-1 mice used in the study consisted of 10/sex/group in Groups 1-4 (control, low-, mid-, and high-dose) and 5/sex in the positive control group. Test peptide as administered orally, the positive control, Cyclophosphamide at 80 mg/kg, as administered orally. Approximately 24 and 48 hours after dosing, mice were killed and bone marrow obtained from both femurs. A slide of a bone marrow suspension was prepared, stained with Wright-Giemsa stain, dried, and scored blind. The number of polychromatic erythrocytes (PCE) among the total erythrocytes (PCE+normochromatic erythrocytes (NCE)) were determined for each animal by counting at least 200 erythrocytes. The number of micronucleated polychromatic erythrocytes (MPCE) then were scored for 2000 PCE per animal. A positive result was obtained if there is a positive dose-response trend or statistically significant increase in the number of MPCE at one or more dose levels compared to controls.

CYP2C19 = CYP2C19 (Homo sapiens, UniProt P33261); assay: Liver CYP screening: CYP2C19; conditions: 10^−3, 10^−2, 0.1 M
CYP2C19, sequence (P33261 whole entry): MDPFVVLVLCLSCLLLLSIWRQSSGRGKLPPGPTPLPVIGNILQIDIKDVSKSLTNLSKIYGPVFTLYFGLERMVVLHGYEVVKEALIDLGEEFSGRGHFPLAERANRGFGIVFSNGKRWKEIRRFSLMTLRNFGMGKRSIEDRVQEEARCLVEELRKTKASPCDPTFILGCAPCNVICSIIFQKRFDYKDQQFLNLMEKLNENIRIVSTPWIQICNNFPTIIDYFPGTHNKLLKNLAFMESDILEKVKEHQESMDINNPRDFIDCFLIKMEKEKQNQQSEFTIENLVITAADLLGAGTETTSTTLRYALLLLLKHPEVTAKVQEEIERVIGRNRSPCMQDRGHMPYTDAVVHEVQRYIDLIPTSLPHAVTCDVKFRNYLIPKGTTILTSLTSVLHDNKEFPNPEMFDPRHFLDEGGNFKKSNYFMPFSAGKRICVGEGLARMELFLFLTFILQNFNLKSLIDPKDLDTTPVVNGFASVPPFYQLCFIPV
Source text: as §1

[2] = 5 or 30 min incubation at 37° C.
CYP2D6 = CYP2D6 (Homo sapiens, UniProt P10635); assay: Liver CYP screening: CYP2D6; conditions: 10^−3, 10^−2, 0.1 M
CYP2D6, sequence (P10635 whole entry): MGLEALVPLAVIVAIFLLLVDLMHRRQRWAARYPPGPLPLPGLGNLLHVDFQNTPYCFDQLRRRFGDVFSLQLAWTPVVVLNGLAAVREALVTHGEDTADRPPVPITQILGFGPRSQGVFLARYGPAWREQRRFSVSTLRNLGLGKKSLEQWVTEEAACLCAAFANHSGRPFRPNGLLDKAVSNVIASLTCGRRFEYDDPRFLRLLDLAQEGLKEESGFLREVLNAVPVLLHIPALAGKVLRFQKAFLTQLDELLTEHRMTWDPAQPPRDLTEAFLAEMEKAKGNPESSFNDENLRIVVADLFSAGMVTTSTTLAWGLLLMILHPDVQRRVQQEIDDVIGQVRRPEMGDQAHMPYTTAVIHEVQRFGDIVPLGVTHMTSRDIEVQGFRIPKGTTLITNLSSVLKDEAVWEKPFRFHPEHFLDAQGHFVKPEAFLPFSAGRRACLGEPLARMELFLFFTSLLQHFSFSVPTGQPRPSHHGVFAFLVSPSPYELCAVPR
Source text: as §1

[3] = biological target: hERG (human ether-a-go-go related gene) channels (Homo sapiens, UniProt Q12809); conditions: HEK293, 35±2° C.; initial results
hERG (human ether-a-go-go related gene) channels, sequence (Q12809 whole entry): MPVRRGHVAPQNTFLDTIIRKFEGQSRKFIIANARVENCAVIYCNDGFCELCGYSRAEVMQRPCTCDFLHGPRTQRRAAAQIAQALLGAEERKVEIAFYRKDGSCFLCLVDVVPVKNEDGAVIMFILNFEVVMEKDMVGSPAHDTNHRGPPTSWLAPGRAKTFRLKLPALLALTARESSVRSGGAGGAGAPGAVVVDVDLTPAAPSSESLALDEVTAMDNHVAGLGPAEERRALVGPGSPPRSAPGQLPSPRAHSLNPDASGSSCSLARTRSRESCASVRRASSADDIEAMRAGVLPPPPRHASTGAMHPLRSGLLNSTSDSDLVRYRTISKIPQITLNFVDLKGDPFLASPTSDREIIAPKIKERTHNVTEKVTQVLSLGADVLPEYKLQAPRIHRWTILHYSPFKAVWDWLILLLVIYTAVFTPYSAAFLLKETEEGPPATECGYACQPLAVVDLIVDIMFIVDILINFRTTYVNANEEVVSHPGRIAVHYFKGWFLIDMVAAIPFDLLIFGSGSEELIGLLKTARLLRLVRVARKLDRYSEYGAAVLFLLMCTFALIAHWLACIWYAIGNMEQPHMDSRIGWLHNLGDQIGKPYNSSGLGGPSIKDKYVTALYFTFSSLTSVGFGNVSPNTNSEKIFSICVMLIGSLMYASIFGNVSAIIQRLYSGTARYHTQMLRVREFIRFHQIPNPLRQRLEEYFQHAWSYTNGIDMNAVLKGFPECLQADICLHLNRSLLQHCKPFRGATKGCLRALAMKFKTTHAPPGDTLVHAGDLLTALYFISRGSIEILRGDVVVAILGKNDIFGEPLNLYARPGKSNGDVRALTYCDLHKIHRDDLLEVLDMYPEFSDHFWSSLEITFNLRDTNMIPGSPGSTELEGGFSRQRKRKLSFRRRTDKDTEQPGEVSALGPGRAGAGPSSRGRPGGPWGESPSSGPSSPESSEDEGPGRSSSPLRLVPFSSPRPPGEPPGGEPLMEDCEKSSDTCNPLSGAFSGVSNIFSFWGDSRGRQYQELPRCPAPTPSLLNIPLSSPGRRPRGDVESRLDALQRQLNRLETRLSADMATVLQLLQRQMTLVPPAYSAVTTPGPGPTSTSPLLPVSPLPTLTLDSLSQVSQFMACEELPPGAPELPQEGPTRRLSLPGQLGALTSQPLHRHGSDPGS
Method: hERG Assay. The objective of the hERG study is to assess the effects of the test article on the rapidly activating inward rectifying potassium current (IKr) conducted by hERG (human ether-a-go-go related gene) channels stably expressed in a HEK293 cell line. The method used is as follows. HEK293 cells, stably transfected with hERG cDNA, were used in the study. All experiments were performed at near-physiological temperature (35±2° C.). A positive control (60 nM terfenadine) was applied to two cells (n≧2). Cells were be transferred to the recording chamber and superfused with HB-PS solution. The recording chamber and bathing solution were maintained at a temperature of 35±2° C. using a combination of in-line solution pre-heater, chamber floor heater, and feedback temperature controller. Bath temperature were measured using a thermistor probe.
Patch pipettes were made from glass capillary tubing using a P-97 micropipette puller (Sutter Instruments, Calif.). A commercial patch clamp amplifier was used for whole cell recordings. Before digitization, current records were low-pass filtered at one-fifth of the sampling frequency.
Cells stably expressing hERG were held at −80 mV.

[4] = Method: These samples were used for the determination of plasma drug by LC/MS/MS for estimating pharmacokinetic parameters and segmental absorption. The bioavailability of intra-stomach, intra-duodenum, intra-jejunum, intra-colon administration relative to intravenous administration and gavage was calculated.
[5] = whole blood, 5 or 30 min at 37° C.
[6] = Catalepsy, horizontal bar test; conditions: Table 11
Method: (§2) Cataleptic Analysis. In laboratory tests, catalepsy is characterized by the inability of an animal to correct its position after placement in an unnatural posture. […] To circumvent these potential confounding factors, tests are performed on an animal only once in a quiet, controlled environment.
(§3) Catalepsy Assessment. […] Rats were given an IP injection of peptide (5 mg/Kg), saline, or haloperidol (1 mg/kg). After 3 hours, catalepsy was measured using the horizontal bar test. Briefly, the front paws were placed directly on a horizontal bar 5 mm in diameter placed 7.5 cm above the cage floor. The rat was held in this position for 3 sec and then released. The time from release until the paws return to the cage floor was measured and recorded. A cut-off time of 30 sec was observed; this indicated a fully cataleptic animal as cataleptic animals are frozen to the bar. […] Measures were repeated every 30 min for 4 hr. Data are means±SEM (p<0.01).
(§4) After 2 h, catalepsy was measured using the horizontal bar test. Data are means±SEM (p<0.01).

CYP2B6 = biological target: T2, CYP2B6 (Homo sapiens, UniProt P20813); assay: Liver CYP screening: CYP2B6; conditions: 10^−3, 10^−2, 0.1 M
T2 sequence (P20813 1-491): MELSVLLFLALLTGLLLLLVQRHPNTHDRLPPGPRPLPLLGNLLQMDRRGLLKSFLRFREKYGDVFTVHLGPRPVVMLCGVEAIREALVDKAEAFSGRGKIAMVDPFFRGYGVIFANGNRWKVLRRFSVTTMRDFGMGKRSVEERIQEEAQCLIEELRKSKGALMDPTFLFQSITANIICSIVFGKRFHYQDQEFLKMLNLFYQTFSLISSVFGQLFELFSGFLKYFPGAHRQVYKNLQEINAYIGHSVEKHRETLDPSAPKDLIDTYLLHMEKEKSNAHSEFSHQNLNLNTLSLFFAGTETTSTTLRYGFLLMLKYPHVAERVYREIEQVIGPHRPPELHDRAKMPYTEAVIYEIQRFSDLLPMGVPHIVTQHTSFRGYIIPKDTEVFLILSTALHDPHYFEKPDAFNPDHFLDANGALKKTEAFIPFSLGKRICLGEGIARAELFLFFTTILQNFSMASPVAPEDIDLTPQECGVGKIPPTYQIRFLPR
Source text: as §1

[7] = Blood and plasma pharmacokinetics of ABS201 in rats
Source text: At selected time points, blood was removed or brain harvested and the concentration of the peptide analog determined using LC/MS/MS.
These samples were then used for the determination of plasma and brain drug levels by LC/MS/MS for estimating BBB penetration and pharmacokinetic parameters.

CYP2C9 = CYP2C9 (Homo sapiens, UniProt P11712); assay: Liver CYP screening: CYP2C9; conditions: 10^−3, 10^−2, 0.1 M
CYP2C9, sequence (P11712 whole entry): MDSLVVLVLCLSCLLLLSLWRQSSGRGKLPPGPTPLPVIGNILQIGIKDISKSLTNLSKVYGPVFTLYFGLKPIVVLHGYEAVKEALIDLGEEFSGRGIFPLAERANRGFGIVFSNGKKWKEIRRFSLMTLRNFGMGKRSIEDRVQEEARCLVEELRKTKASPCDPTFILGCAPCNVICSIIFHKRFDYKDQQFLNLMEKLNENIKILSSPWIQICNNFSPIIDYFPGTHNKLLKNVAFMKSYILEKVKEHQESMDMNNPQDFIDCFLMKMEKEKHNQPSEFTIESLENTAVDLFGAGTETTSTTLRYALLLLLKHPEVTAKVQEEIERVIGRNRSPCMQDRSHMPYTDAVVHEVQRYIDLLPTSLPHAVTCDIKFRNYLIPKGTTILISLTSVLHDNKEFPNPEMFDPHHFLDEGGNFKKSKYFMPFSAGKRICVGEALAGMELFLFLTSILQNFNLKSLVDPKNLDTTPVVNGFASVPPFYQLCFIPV
Source text: as §1

Formalin assay = conditions: morphine 5 mg/kg, approximately equimolar
Tail flick assay = conditions: ABS212 10 mg/kg, Morphine 5 mg/kg
[8] = rat, in vivo
Method: as §2, §3, §4

in vitro = conditions: plasma
[9] = d-Amphetamine induced hyperlocomotion and spontaneous locomotor activity; assay type: in vivo, rat; conditions: Table 11
Source text: This model operates on the assumption that the direct stimulation of DA receptors within the mesolimbic DA system is responsible for the locomotor response.
Sound- and light-attenuated locomotor cages are used to measure the ability of potential candidates to decrease d-amphetamine-induced hyperactivity.
d-Amphetamine induced hyperlocomotion. Experimentally I male Sprague-Dawley rats were housed as described above. Rats were handled for three days prior to testing to minimize experimenter induced hyperlocomotion on test day. For experiments, sound- and light-attenuated automated photocell beam activity chambers (AccuScan Instruments, Inc., Columbus, Ohio) were used to measure locomotion. Cages were connected to a VersaMax Analyzer (AccuScan) in conjunction with an IBM computer using VersaMax 1.80-0146 software (AccuScan) to record vertical and horizontal activity. Total activity values recorded were the sum of vertical and horizontal activity.
Each animal's activity was measured by how many times per minute the animal “trips” a photobeam in a computer-controlled photocell activity chamber (San Diego Instruments, San Diego, Calif.). […] Doses were assigned so that each was assessed in 12 chambers that were distributed over the apparatus, which controls for variations in lighting, etc. of the different chambers. […]

SMILES: CC[C@H](C)[C@H](NC(=O)[C@H](Cc1ccc(O)cc1)NC(=O)[C@@H]1CCCN1C(=O)[C@H](CCCNC(=N)N)NC(=O)[C@H](CCCNC(=N)N)N=[N+]=[N-])C(=O)N[C@@H](CC(C)C)C(=O)O [ABS15, X-Arg-Pro-Tyr-isoleu-Leu]
- EC50 (NTR-2): 900 ± 200 pM
- NTR-1/NTR-2 selectivity (NTR-2; Table 12): 2.5
- EC50 (NTR-1): 400 ± 100 pM

SMILES: CC(C)C[C@H](NC(=O)[C@@H](NC(=O)[C@H](Cc1ccc(O)cc1)NC(=O)[C@@H]1CCCN1C(=O)[C@H](CCCNC(=N)N)NC(=O)[C@@H](C)CCCCCN)C(C)(C)C)C(=O)O [ABS201, hLys-Arg-Pro-Tyr-t-Leu-Leu] (X1-RPY[Tle]L-OH)
- inhibition of substrate binding (CYP3A4): No inhibition
- inhibition of substrate binding (CYP1A2): No inhibition
- lower limit for the MTD ([1]; rat, in vivo): ≥ 100 times the ED50
- Toxicity, dose without toxicity ([1]; single acute dose I.P.): (>100 × ED50)
- Toxicity ([1]; single acute dose at 100x ED50 administered I.P.): No
- micronucleus study result (mouse bone marrow cells): inactive
- inhibition of substrate binding (CYP2C19): No inhibition
- binding to plasma proteins [2]: little or no binding
- inhibition of substrate binding (CYP2D6): No inhibition
- hERG study result [3]: inactive
- segment with maximal uptake ([4]; in situ looped models): intra-duodenum exhibiting the maximal amount of uptake
- site of absorption in the GI tract ([4]; in situ looped models): absorbed almost entirely in the intestine
- uptake in the stomach ([4]; intra-stomach): Virtually no ABS201 is taken up in the stomach
- distribution into blood cellular elements [5]: about 33%
- Catalepsy [6]: No
- inhibition of substrate binding (CYP2B6): No inhibition
- time by which plasma levels decreased below the LLOD ([7]; IV 1 mg/kg): ≤ 45 min
- clearance as % of rat hepatic blood flow ([7]; IV 5 mg/kg): 74.02%
- time over which measurable in whole blood ([7]; IV 5 mg/kg): up to 120 minutes
- time over which detectable in the blood and brain ([7]; IV 5 mg/kg or oral 50 mg/kg, LC/MS/MS): up to 120 minutes
- inhibition of substrate binding (CYP2C9): No inhibition

SMILES: CN1CC[C@]23c4c5ccc(O)c4O[C@H]2[C@@H](O)C=C[C@H]3[C@H]1C5 [Morphine, reference compound]
- duration of activity of morphine (Formalin assay): loses activity after 30 minutes
- MPE (0 min) (Tail flick assay): 0.03 +/− 0.05
- MPE (30 min) (Tail flick assay): 63.7 +/− 41.9
- MPE (60 min) (Tail flick assay): 67.5 +/− 25.8

SMILES: CC[C@H](C)[C@H](NC(=O)[C@H](Cc1ccc(O)cc1)NC(=O)[C@@H]1CCCN1C(=O)[C@H](CCCNC(=N)N)NC(=O)[C@@H](N)CCCNC(=N)N)C(=O)N[C@@H](CC(C)C)C(=O)O [NT(8-13), NH2-Arg-Arg-Pro-Tyr-Ile-Leu-COOH]
- Catalepsy [8]: No
- half-life (in vitro): 5 min
- Hyperlocomotion Inhibition (active routes) [9]: CNS administration
- Inhibits locomotor activity (active routes) [9]: CNS administration
